Reference: US20190136188A1, “4HPR AND ITS USE IN THE CULTURING OF HEMATOPOIETIC STEM CELLS” (UNIVERSITY HEALTH NETWORK, priority 2016, published 2019)

Experiments:
[1] = test system: lineage-depleted CB (lin-CB) cells; test: Dose titration of 4HPR, cell viability; type: cell-based; details: Homo sapiens, 72 h, 3 days post-treatment, read-out: concentration giving half maximal cell viability compared to vehicle control
Experimental: (§1) (A) Dose response of varying [4HPR] in CB at day 3 post-treatment showing 2 uM 4HPR gives the relative half maximal number of viable cells compared to control. All experiments following are at this 4HPR concentration unless otherwise indicated. […] (C) LC/MS was used to profile the ceramide (Cer), dihydroceramide (dhCer), sphingosine (sph), dihydrosphingosine (dhSph), S1P and dihydro-S1P (dhS1P) levels in lin− CB cells cultured for 8 days with control or 4HPR (n=2). […] (D) HSC, MPP, or GMP were sorted into methylcellulose for CFC assays in the presence of control or 4HPR and colonies were blindly scored following 10-11 days for (D) colonies/100 cells and ((E) colony distribution are shown (n=7). (F) Flow cytometry for erythroid (GlyA+) and monocytic (CD14+) markers in live cells from pooled CFC colonies were scored (n=6). (F) Relative number of colonies from CFC assays comparing the effect of 4HPR or ATRA (n=3) on sorted HSC, MPP or GMP.
However, the functional consequence of 4HPR treatment on human cord blood primitive cells is unknown. […]

[2] = test system: sorted HSC, MPP or GMP; test: Colony forming assay (CFC) in methylcellulose; type: cell-based, human
Experimental: as §1, with “GMP. […]” for “GMP.”
(A) Representative flow cytometry analysis of the primitive hierarchy within the CD34+ fraction of day 8 cultured lin− CB cells after the indicated treatments for CD90 and CD45RA, n=4. B) The distribution of cultured CD34+CD90+CD45RA− (cHSC), CD34+CD90−CD45RA− (cMPP), and […] for the indicated conditions at day 8 of ex vivo culture following CD34 enrichment. Statistical significance assayed through unpaired t-test relative to vehicle control (Ctrl). The relative number of colonies resulting from (C) HSC or (D) MPP grown in methylcellulose CFC assays in the presence of vehicle control (−) or the indicated combination of 2 uM 4HPR, or 35 nM UM171 or 0.5 uM SR1 at 10 days. Statistical significance is calculated via unpaired t-test relative to ctrl (black) or to the presence of absence of 4HPR treatment for UM171 or SR1.
However, the functional consequence of 4HPR treatment on human cord blood primitive cells is unknown. A dose titration of 4HPR was performed on lineage-depleted CB (lin-CB) cells and 2 uM was calculated to give half maximal cell viability at 3 days post-treatment compared to vehicle control (ctrl), a concentration reported in cell lines to antagonize DEGS1 enzymatic function, and used for all subsequent experiments unless otherwise indicated (FIG. 1A). […] Next, we utilized the colony forming assay (CFC) for in vitro progenitor function to determine if 4HPR treatment alters functional output from isolated populations of CB HSPC. […] This is unsurprising as retinoic acid signaling is a potent differentiation signal in hematopoietic cells. Thus, 4HPR inhibition of sphingolipid homeostasis selectively enhances cloning efficiency in human HSC.
Given the CD34 compartment where functional HSC should reside following ex vivo expansion is critical to blood production, we asked if there were immunophenotypic alterations following 4HPR treatment. StemRegenin-1 (SR1) or UM171 are two molecules whose action on CB has been reported to expand CD34+ cells dramatically and lead to increase reconstitution in xenotransplantation (Fares, et al Science, 2014: Boitano, Science, 2010). We sought to ask if limiting CD34+ expansion with 4HPR treatment is synergistic with these known agonists of CB ex vivo expansion. Lin− CB were cultured with these 3 small molecules alone or in combination for 8 days and the CD34 compartment was isolated and analyzed by flow cytometry further with CD90 and CD45RA to look at immunophenotypic cultured HSC (cHSC), MPP (cMPP) and committed progenitors (cProg). These populations were sorted from lin-CB at […] following expansion and transplanted into NSG mice for 16 weeks to ascertain that cProg cells are committed progenitors, while cHSC and cMPP retain multipotency following culture (FIG. 8A, B). […]

[3] = test system: CB stem and prog cells; test: Flow cytometry for ROS (CELLROX), mitochondrial membrane potential (TMRE), mitochondrial mass (mitotracker green); type: cell-based, human
[4] = test system: lin- CB cells; test: RNA-sequencing gene set enrichment; type: cell-based, human; details: 4HPR vs Ctrl
Text: RNA from 3 pools of Lin− CB cells treated with vehicle control, 4HPR, UM171+SR1 or the triple combination of 4HPR+UM171+SR1 for 2 days were subjected to RNA-sequencing without amplification on the Illumina HiSeq 2500. (A) Functional enrichment map of gene sets enriched (red) by 4HPR treatment including or enriched by Ctrl treatment (blue) at day 2.
To elucidate the genetic pathways enriched by 4HPR treatment in human CB that may contribute to preserving HSC function in ex vivo expansion alone or in combination with UM171 and SR1, we performed RNA-sequencing of 3 pools of lin-CB at day 2 and day 4 following treatment with all four treatment groups. To avoid amplification bias, RNA-seq was performed on samples without amplification. […] The latter is known to be regulated by autophagy (Singh, Nature, 2009).

[5] = stem and prog cells, day 2 and day 3

CC1=C(/C=C/C(C)=C/C=C/C(C)=C/C(=O)Nc2ccc(O)cc2)C(C)(C)CCC1 [4HPR, N-(4hydroxyphenyl)retinamide]
IC50 [1]: 2000 nM | relative cloning efficiency from HSC ([2]; 2 uM 4HPR in combination with either UM171 or SR1, to levels similar to 4HPR alone): increased relative cloning efficiency from HSC | colony distribution (colony type) ([2]; HSC and MPP samples, 2 uM 4HPR): more likely to be granulocyte-macrophage (GM) colonies | increase of colony output over control treatment ([2]; HSC, 2 uM 4HPR, colonies scored after 10-11 days): 50% | increase of colony output over control treatment ([2]; MPP or GMP, 2 uM 4HPR): but not MPP or GMP | myeloid (CD14) and erythroid (GlyA) output of cells from CFC assays ([2]; flow cytometry of pooled CFC colonies, 2 uM 4HPR): enhances myeloid output at the expense of erythroid differentiation | mitochondrial mass ([3]; progenitor cells, 2 days of treatment): does decrease mitochondrial mass | ROS [3, 5]: decreased | mitochondrial mass [3, 5]: decreased | mitochondrial membrane potential [3, 5]: decreased | mitochondrial mass ([3]; stem cells, 2 days of treatment): without significantly altering mitochondrial mass in stem cells | mitochondrial mass ([3]; stem cells, D3 post-treatment): decreases mitochondrial mass by day 3 post-treatment in stem cells | ER stress and UPR gene sets [4]: upregulates ER stress and UPR gene sets | autophagy gene sets [4]: enriched for autophagy gene sets including mitophagy | ceramide/sphingolipid biosynthesis gene sets [4]: enrichment of ceramide/sphingolipid biosynthesis gene sets | cholesterol/sterol biosynthetic pathways [4]: decrease in cholesterol/sterol biosythetic pathways
